From patent publication US20130131126A1, “DERIVATIVES OF 1,4-DIHYDROPYRIDINE POSSESSING ANTIVIRAL EFFICACY” (JSC Grindeks, priority 2010, published 2013)

System: influenza virus (H3N2)
Test: Antiviral efficacy against influenza virus on MDCK cell line in vitro
Type: cell-based
Details: MDCK cells infected with influenza virus (H3N2); compound present from 1 hour after infection until end of culture; over a wide concentration range

Compound | antiviral efficacy against influenza
COC(=O)C1=C(C)NC(C)=C(C(=O)OCC(=O)[O-])C1.[Na+] [sodium 2,6-dimethyl-3-methoxycarbonyl-1,4-dihydropyridine-5-carbonyloxyacetate] | effective against influenza
COC(=O)C1C(C(=O)OCC(=O)[O-])=C(C)NC(C)=C1C(=O)OCC(=O)[O-].[Na+].[Na+] [disodium 2,6-dimethyl-1,4-dihydropyridine-4-methoxycarbonyl-3,5-bis-(carbonyloxyacetate)] | effective against influenza
CCOC(=O)C1=C(C)NC(C)=C(C(=O)OCC(=O)[O-])C1.[Na+] [sodium 2,6-dimethyl-3-ethoxycarbonyl-1,4-dihydropyridine-5-carbonyloxyacetate] | effective against influenza
